What was measured:
[1] = target: 26S proteasome non-ATPase regulatory subunit 14 (Homo sapiens, UniProt O00487); test: In Vitro Rpn11 Activity Assay; conditions: pH 7.5; 30 °C
[2] = target: BRISC and BRCA1-A complex member 1/BRISC and BRCA1-A complex member 2/BRISC complex subunit Abraxas 2/Lys-63-specific deubiquitinase BRCC36 (Human, UniProt P46736+Q15018+Q9NWV8+Q9NXR7); test: In Vitro BRCC36 Activity Assay
Experimental: BRCC36 activity was measured using 1 nM purified BRISC complex and 80 nM di-ubiquitin substrate DiUbK63TAMRA (UF-310, Boston Biochem). TAMRA fluorescence intensity was monitored using a PHERAstar plate reader with excitation at 540 nm and emission at 590 nm. Reactions were performed in black low-volume 384-well plates and analyzed as described above.

[3] = target: 72 kDa type IV collagenase (Homo sapiens, UniProt P08253); test: MMP Activity Assay; conditions: pH 7.5; 37 °C
Experimental: (§1) The assay was carried out in white NUNC 96-well plates as previously described [Puerta et al., J. Biol. Inorg. Chem., 11:131-138]. Each well contained a total volume of 90 μl including buffer (50 mM HEPES, 10 mM CaCl2, 0.05% Brij-35, pH 7.5), human recombinant MMP (1.16 U/well for MMP2 and 0.007 U/well for MMP12), and the fragment solution. This mixture was incubated at 37 °C for 30 min. The reaction was then initiated by the addition of 10 μl of the fluorogenic MMP substrate (4 μM final concentration, Mca-Pro-Leu-Gly-Leu-Dpa-Ala-Arg-NH2-AcOH) (Mca = (7-methoxycoumarin-4-yl) acetyl; Dpa = N-3-(2,4-dinitrophenyl)-L-a,β-diaminopropionyl). Fluorescence measurements were recorded using a BioTek Synergy H4 fluorescence plate reader every minute for 20 min with excitation and emission wavelengths at 320 and 400 nm, respectively.

[4] = target: Macrophage metalloelastase (Homo sapiens, UniProt P39900); test: MMP Activity Assay; conditions: pH 7.5; 37 °C
Experimental: as §1

Histone deacetylase 6 = target: T1, Histone deacetylase 6 (Homo sapiens, UniProt Q9UBN7); test: HDAC6 Activity Assay; conditions: pH 8; 37 °C
T1 sequence (Q9UBN7 whole entry): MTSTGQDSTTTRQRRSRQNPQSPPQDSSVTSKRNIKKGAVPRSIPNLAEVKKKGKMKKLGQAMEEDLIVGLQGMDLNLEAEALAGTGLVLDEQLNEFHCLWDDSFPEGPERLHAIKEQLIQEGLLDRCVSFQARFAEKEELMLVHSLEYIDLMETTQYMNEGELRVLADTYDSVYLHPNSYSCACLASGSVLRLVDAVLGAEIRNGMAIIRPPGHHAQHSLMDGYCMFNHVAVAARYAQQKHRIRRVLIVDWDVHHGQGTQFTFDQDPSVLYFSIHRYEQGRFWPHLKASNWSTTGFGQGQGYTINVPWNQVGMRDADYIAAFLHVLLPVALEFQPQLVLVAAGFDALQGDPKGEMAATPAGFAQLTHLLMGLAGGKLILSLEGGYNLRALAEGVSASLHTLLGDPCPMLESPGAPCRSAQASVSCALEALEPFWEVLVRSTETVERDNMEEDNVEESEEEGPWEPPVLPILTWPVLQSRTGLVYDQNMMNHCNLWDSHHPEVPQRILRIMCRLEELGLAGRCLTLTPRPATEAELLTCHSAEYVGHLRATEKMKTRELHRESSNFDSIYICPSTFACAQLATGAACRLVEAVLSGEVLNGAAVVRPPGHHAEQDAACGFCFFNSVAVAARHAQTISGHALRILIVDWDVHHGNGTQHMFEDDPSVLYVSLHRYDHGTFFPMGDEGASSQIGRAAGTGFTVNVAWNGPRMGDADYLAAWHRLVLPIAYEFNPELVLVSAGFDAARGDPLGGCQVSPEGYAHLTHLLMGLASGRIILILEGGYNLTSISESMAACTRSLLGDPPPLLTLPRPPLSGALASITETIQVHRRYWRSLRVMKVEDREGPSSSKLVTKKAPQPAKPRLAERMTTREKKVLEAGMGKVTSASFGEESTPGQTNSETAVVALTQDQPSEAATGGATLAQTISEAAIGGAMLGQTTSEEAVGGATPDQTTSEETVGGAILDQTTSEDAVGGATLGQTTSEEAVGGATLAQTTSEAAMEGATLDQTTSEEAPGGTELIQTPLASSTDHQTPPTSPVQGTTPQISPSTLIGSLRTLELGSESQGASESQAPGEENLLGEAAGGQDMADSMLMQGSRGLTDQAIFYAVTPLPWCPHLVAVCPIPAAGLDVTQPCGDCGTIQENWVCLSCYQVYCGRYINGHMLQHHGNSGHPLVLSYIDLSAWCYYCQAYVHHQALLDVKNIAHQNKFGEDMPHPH
Experimental: The enzyme was diluted with 25 mM Tris-Cl, 137 mM NaCl, 2.7 mM KCl, 1 mM MgCl2, 0.1 mg/ml BSA, pH 8.0 buffer and its activity was measured by using Substrate 3 (BPS Bioscience; catalog #50037). The assays were carried out in black, low-binding NUNC 96-well plates. Each well contained a volume of 50 μl including buffer, HDAC (50 ng/well), inhibitor, and substrate (20 μM). Prior to adding substrate, the plate was pre-incubated for 5 min. Upon addition of substrate, the plate was incubated at 37 °C for 30 min. At this point, HDAC assay developer (50 μl, BPS Bioscience; catalog #50030) was added to each well and the plate was incubated for 15 min at room temperature. The fluorescence was recorded with a BioTek FLx800 or Synergy H4 microplate reader.

Lactoylglutathione lyase = Lactoylglutathione lyase (Homo sapiens, UniProt Q04760); test: GLO1 Activity Assay; conditions: pH 7; 25 °C
Experimental: Assays were carried out in 100 mM sodium phosphate, pH 7.0 buffer using 96-well Clear UV Plate (Corning UV Transparent Microplates; catalog #3635). A fresh solution of glutathione (pre-substrate 1, 100 mM) as well as methylglyoxal (pre-substrate 2, 100 mM) was prepared in deionized water. The substrate was prepared by adding 14.5 ml of buffer and 0.99 ml of each pre-substrate components. The substrate mixture was vortexed vigorously for 15 s, then allowed to sit at room temperature for 20 min. Initial well volume was 50 μl containing GLO1 (40 ng) and inhibitor. This protein and inhibitor mixture was incubated for 15–20 min before the addition of substrate. To this was then added substrate (150 μl), yielding a maximum amount of 5% DMSO per well. The enzyme activity was measured using a BioTek Synergy H4 plate reader by measuring absorbance at 240 nmevery 1 min for 8 min.

26S proteasome non-ATPase regulatory subunit 14, sequence (O00487 whole entry): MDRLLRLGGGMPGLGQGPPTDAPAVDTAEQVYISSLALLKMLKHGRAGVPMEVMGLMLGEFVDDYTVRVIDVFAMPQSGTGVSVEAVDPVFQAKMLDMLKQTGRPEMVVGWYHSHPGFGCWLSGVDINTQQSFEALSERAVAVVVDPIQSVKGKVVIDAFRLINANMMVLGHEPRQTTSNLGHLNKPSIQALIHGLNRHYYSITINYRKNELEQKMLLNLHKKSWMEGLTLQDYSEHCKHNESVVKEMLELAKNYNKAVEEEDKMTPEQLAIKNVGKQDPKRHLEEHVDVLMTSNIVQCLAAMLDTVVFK
Lactoylglutathione lyase, sequence (Q04760 whole entry): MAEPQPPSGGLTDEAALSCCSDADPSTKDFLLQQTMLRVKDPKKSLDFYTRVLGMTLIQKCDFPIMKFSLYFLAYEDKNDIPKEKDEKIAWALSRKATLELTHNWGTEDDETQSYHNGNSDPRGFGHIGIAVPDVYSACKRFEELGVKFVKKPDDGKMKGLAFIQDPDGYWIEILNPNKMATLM
72 kDa type IV collagenase, sequence (P08253 whole entry, the tested form may be a part): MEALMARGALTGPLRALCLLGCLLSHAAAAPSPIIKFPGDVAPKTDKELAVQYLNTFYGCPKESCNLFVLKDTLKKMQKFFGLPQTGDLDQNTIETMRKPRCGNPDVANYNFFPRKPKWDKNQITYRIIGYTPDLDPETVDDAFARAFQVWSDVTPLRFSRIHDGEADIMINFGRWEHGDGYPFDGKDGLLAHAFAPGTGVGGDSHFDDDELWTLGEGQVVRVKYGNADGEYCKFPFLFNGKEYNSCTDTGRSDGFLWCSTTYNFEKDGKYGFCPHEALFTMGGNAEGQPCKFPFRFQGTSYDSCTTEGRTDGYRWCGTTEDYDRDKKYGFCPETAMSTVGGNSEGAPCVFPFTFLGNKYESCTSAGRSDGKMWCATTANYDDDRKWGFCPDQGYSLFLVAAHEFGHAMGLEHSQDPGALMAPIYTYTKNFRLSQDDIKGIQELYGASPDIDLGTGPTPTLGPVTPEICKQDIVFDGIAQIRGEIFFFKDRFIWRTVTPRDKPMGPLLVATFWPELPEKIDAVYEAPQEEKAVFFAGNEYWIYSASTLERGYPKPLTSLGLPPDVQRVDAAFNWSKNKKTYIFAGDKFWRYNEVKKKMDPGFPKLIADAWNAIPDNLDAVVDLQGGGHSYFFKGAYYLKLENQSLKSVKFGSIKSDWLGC
Macrophage metalloelastase, sequence (P39900 whole entry): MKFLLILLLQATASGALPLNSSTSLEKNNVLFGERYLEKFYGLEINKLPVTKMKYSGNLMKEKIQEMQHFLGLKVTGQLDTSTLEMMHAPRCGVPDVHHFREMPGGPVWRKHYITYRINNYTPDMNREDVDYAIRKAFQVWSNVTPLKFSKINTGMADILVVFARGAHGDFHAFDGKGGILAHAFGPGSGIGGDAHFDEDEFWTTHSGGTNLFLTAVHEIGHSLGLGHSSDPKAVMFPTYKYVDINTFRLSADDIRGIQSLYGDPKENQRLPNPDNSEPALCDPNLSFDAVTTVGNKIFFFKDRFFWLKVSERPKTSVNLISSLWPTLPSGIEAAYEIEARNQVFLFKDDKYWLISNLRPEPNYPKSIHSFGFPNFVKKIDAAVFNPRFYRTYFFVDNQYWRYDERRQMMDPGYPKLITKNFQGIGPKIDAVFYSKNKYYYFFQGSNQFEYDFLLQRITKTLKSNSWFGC

IC50 [1]	IC50 [2]	IC50 [3]	IC50 [4]	IC50 (Histone deacetylase 6)	IC50 (Lactoylglutathione lyase)	Compound
2.4 µM						Sc1cccc2cccnc12 [8-Mercaptoquinoline (8TQ)]
	2.3 µM	> 50 µM	> 50 µM	> 200 µM	42.8 µM	O=C(NCCc1nccs1)c1cnc2c(S)cccc2c1 [Capzimin]
